According to patent publication US11040963B2 (priority 2017, dated 2021):

How the values were obtained:
[1] = molecular target: HA H1 A/California/07/09 (Influenza A virus (A/California/07/2009(H1N1)), UniProt C3W5X2); assay: biochemical; details: Competition binding (AlphaLISA), pIC50 H1 A/California/07/09
[2] = molecular target: HA H5 A/Vietnam/1203/04 (Influenza A virus (A/Vietnam/1203/2004(H5N1)), UniProt Q5EP31); assay: biochemical; details: Competition binding (AlphaLISA), pIC50 H5 A/Vietnam/1203/04
[3] = in vitro; details: dog, Cytotoxicity (pCC50) MDCK
[4] = system: H1N1 A/New Caledonia/20/99; assay: microbe, parasite or virus in culture; assay type: cell-based, influenza A virus; details: Influenza A virus, H1N1, MDCK, 96 h, read-out: Virus neutralization assay (VNA), pEC50 H1N1 A/New Caledonia/20/99 (converted)
[5] = system: H1N1 A/California/07/09; assay: microbe, parasite or virus in culture; assay type: cell-based, influenza A virus; details: Influenza A virus, H1N1, MDCK, 96 h, read-out: Virus neutralization assay (VNA), pEC50 H1N1 A/California/07/09 (converted)
[6] = system: H5N1 A/Vietnam/1203/04; assay: microbe, parasite or virus in culture; assay type: cell-based, influenza A virus; details: Influenza A virus, H5N1, MDCK, 96 h, read-out: Virus neutralization assay (VNA), pEC50 H5N1 A/Vietnam/1203/04, MDCK cells, 96 h, CPE by ATPlite (converted); average of repeats
[7] = molecular target: HA H1 A/New Caledonia/20/99 (Influenza A virus (A/New Caledonia/20/1999(H1N1)), UniProt Q6WG00); assay: biochemical; details: Competition binding (AlphaLISA), pIC50 H1 A/New Caledonia/20/99

Row | Compound | IC50 [1] [nM] | IC50 [2] [nM] | CC50 [3] [nM] | EC50 [4] [nM] | EC50 [5] [nM] | EC50 [6] [nM] | IC50 [7] [nM]
1 | Cc1nnc(C(c2ccccc2)N2CCN(C(=O)c3cc(-c4nc5cc(OC(F)(F)F)ccc5o4)ccn3)CC2)s1 (centres unmarked) [Example 49] | 251 | 3980 | 15800 | 316 | 501 | 31600 | 200
2 | COC(=O)C(c1ccccc1)N1CCN(C(=O)c2cccc(-c3nc4cccnc4o3)c2)CC1 (centres unmarked) [Example 50] | 63.1 | 3980 | > 50100 | 316 | 794 | 31600 | 63.1
3 | CC(=O)Nc1ccc2oc(-c3cccc(C(=O)N4CCN(C(c5ccccc5)c5nnc(C)o5)CC4)c3)nc2c1 (centres unmarked) [Example 51] | 15.8 | 631 | 50100 | 251 | 251 | 15800 | 12.6
4 | Cn1ccc(C(c2ccccc2)N2CCN(C(=O)c3cccc(-c4nc5cc(C(F)(F)F)ccc5o4)c3)CC2)n1 (centres unmarked) [Example 53] | 5010 | 20000 | > 50100 | 398 | 1000 | > 50100 | 3980
5 | COC(=O)C(c1ccccc1)N1CCN(C(=O)c2cncc(-c3nc4ccc(OC)cc4s3)c2)CC1 (centres unmarked) [Example 54] | 100 | 398 | 50100 | 398 | 1260 | 6310 | 50.1
6 | COc1ccc2nc(-c3cccc(C(=O)N4CCN(C(C(=O)NCCCN)c5ccccc5)CC4)c3)sc2c1 (centres unmarked) [Example 55] | 63.1 | 631 | > 50100 | 398 | 2000 | 10000 | 50.1
7 | COc1ccc2nc(-c3cccc(C(=O)N4CCN(C(c5ccccc5)c5nncs5)CC4)c3)sc2c1 (centres unmarked) [Example 56] | 398 | 3160 | > 50100 | 398 | 5010 | > 50100 | 158
8 | O=C(c1cccc(-c2nc3cc(C(F)(F)F)ccc3o2)c1)N1CCN(C(c2ccccc2)c2nnc(C3(O)CCC3)o2)CC1 (centres unmarked) [Example 57] | 50.1 | 2510 | 39800 | 501 | 251 | 20000 | 79.4
9 | COC(=O)[C@@H](c1ccccc1)N1CCN(C(=O)c2cccc(-c3nc4cc(C(F)(F)F)ccc4o3)c2)[C@@H](CC(N)=O)C1 [Example 58] | 39.8 | 1000 | 39800 | 398 | 398 | 5010 | 31.6
10 | COC(=O)C(c1ccccc1)N1CCN(C(=O)c2cccc(-c3nc4cc(Cl)ccc4o3)c2)CC1 (centres unmarked) [Example 59] | 63.1 | 2000 | > 50100 | 501 | 398 | 20000 | 63.1
11 | COC(=O)C(c1ccccc1)N1CCN(C(=O)c2cccc(-c3nc4ccc(OC)cc4o3)c2)CC1 (centres unmarked) [Example 60] | 63.1 | 1580 | 25100 | 501 | 631 | 12600 | 39.8
12 | COc1ccc2nc(-c3cccc(C(=O)N4CCN([C@H](c5ccccc5)c5nnn(C)n5)CC4)c3)sc2c1 [Example 61] | 79.4 | 501 | 39800 | 501 | 631 | 2000 | 63.1
13 | COC(=O)[C@H](c1ccccc1)N1CCN(C(=O)c2cccc(-c3nc4cc(C(F)(F)F)ccc4o3)c2)[C@@H](C(N)=O)C1 [Example 62] | 100 | 3160 | 39800 | 631 | 631 | 20000 | 100
14 | Cc1nnc([C@@H](c2ccccc2)N2CCN(C(=O)c3cc(F)cc(-c4nc5cc(C(F)(F)F)ccc5o4)c3)CC2)o1 [Example 63] | 158 | 15800 | > 50100 | 501 | 631 | > 50100 | 158
15 | CNC(=O)c1cnc(-c2cccc(C(=O)N3CCN(C(C(=O)OC)c4ccccc4)CC3)c2)s1 (centres unmarked) [Example 64] | 79.4 | 2000 | > 50100 | 501 | 1000 | 25100 | 79.4
16 | COC(=O)C(c1ccccn1)C1CCN(C(=O)c2cccc(-c3nc4ccc(OC)cc4s3)c2)CC1 (centres unmarked) [Example 66] | 100 | 794 | 20000 | 501 | 1000 | 12600 | 63.1
17 | COC(=O)[C@@H](c1ccccc1)N1CCN(C(=O)c2cccc(-c3nc4cc(C(F)(F)F)ccc4o3)c2)[C@H](CC(N)=O)C1 [Example 67] | 50.1 | 3160 | 39800 | 631 | 794 | 31600 | 50.1
18 | COC(=O)C(c1cccnc1)N1CCN(C(=O)c2cccc(-c3nc4ccc(OC)cc4s3)c2)CC1 (centres unmarked) [Example 68] | 200 | 1260 | 10000 | 501 | 2000 | 20000 | 100
19 | [2H]C([2H])([2H])c1nnc(C(c2ccccc2)N2CCN(C(=O)c3cccc(-c4nc5cc(C(F)(F)F)ccc5o4)c3)CC2)o1 (centres unmarked) [Example 70] | 158 | 3980 | > 50100 | 631 | 501 | > 50100 | 158
20 | COc1ccc2nc(-c3cccc(C(=O)N4CCN(C(c5ccccc5)c5nnc(C)o5)CC4)c3)sc2c1 (centres unmarked) [Example 71] | 100 | 1000 | > 50100 | 631 | 794 | 7940 | 100
21 | COc1ccc2nc(-c3cccc(C(=O)N4CCN(C(c5ccccc5)c5nnn(C)n5)CC4)c3)sc2c1 (centres unmarked) [Example 72] | 200 | 1580 | 50100 | 631 | 794 | 39800 | 126
22 | Cc1nnc(C(c2ccccc2)N2CCN(C(=O)c3cccc(-c4nc5cc(NS(C)(=O)=O)ccc5o4)c3)CC2)o1 (centres unmarked) [Example 73] | 15.8 | 1260 | > 50100 | 794 | 794 | > 50100 | 25.1
23 | COc1ccc2nc(-c3cccc(C(=O)N4CCN(C(c5ccccc5)c5ncco5)CC4)c3)sc2c1 (centres unmarked) [Example 74] | 200 | 2000 | > 50100 | 631 | 1000 | 6310 | 79.4
